From patent US9155752B2, “Liver function-improving agent” (UENO FINE CHEMICALS INDUSTRY, LTD., priority 2012, dated 2015)
Entries after “also recorded” stand apart in the source; their conditions may differ.

Columns and labels:
[1] = test system: C57BL/6 male mice fed high fat diet; assay: Fat vacuoles in hepatocytes, HE-stained liver tissue (Test Example 2); type: in vivo; settings: for Fat vacuole area, Significant difference: 1% level; for Fat vacuole area (Mean ± Standard error): 8 weeks
Protocol: The following test was carried out in the same manner as in Test Example 1 for (1) test animal, (2) diet, and (3) preparation of sample. The diet and the sample water (test substance aqueous solution or distilled water) listed in Table 1 were administered to mice in each group and the animals were fed for 8 weeks. After 8-week test feeding, pentobarbital of 100 mg/kg of body weight was intraperitoneally administered to mice, and the mice were euthanized, and then liver was excised. The liver tissue excised from mice was stained with hematoxylin-eosin (HE) and a specimen observation under a microscope was carried out. Moreover, the results of microscopic observation were analyzed by the following method and a significant difference was evaluated by the t-test. […] This photographing was performed for four mice per group to obtain 16 microscopic images in total per group. At first, stained parts such as cytoplasm and nucleus in hepatocytes were selected by the image analysis. Then fat vacuole parts were selected by color inversion and the number of pixels for the selected fat vacuole parts was considered as a fat vacuole area. In the analysis, Dynamic Cell Count software accompanying fluorescence microscope BZ-9000 was used.

NASH mice = assay: Sirius Red staining of liver, fibrosis area % (Test Example 3); type: in vivo; settings: for Fibrosis area %, Significant difference: Bonferroni, 5% level, tendency at 10% level; for Fibrosis area % (Sirius Red staining), mean ± standard deviation: 8 weeks of age
Description: A solid diet CE-2 (lipid 4.6% by weight, manufactured by CLEA Japan, Inc.) was used as a normal diet. A solid diet, High Fat Diet 32 (lipid 32.0% by weight, sucrose 6.75% by weight, manufactured by CLEA Japan, Inc.), was used as a sucrose-containing high fat diet. As a maltitol-containing high-fat diet, a special diet (lipid 32.0% by weight, maltitol 6.08% by weight; manufactured by CLEA Japan, Inc.) obtained by replacing the total amount (6.75% by weight) of sucrose in a solid diet, High Fat Diet 32, with powdered maltitol (Whole Crystalline Maltitol Ueno 60M (purity of maltitol: 90%), manufactured by Ueno Fine Chemicals Industry Ltd.) was used. Sodium hypochlorite (PURELOX-S, manufactured by OYALOX Co., Ltd.) was added to pure water prepared by Elix-UV pure water producing apparatus, to a final concentration of 0.00009%, so that pure water for use in the test was obtained. An aqueous maltitol solution was prepared by dissolving powdered maltitol (Whole Crystalline Maltitol Ueno 60M (purity of maltitol: 90%), manufactured by Ueno Fine Chemicals Industry Ltd.) in pure water to a concentration of 1.8% (weight/volume). The purity of maltitol in the aqueous maltitol solution was 1.62%. Twenty-one female SPF mice (C57BL/6J, produced by CLEA Japan, Inc.) on day 14 of pregnancy were purchased and acclimation was performed. All animals were allowed to make a natural birth and a born male was used to produce a model. In addition, the weaning was at 4 weeks after birth. Streptozotocin (Sigma-Aldrich Japan K.K.) was adjusted to a concentration of 10 mg/mL with a physiological saline solution (manufactured by Otsuka Pharmaceutical Factory, Inc.) and the solution was subcutaneously administered once to the back of 2-day-old male mice at a dose of 20 μL/mouse (200 μg/mouse). Afterwards, the mother animal took care of the baby until weaning. The weaning was on day 28±2 after birth. After the weaning, a normal diet was supplied ad libitum to animals receiving no streptozotocin (normal mice (group S1 and group 1)), and a sucrose-containing high fat diet was supplied ad libitum to animals receiving streptozotocin (NASH mice (group S2, group 2, group 3, and group 4). A normal diet was supplied ad libitum to normal mice (group 1). With respect to NASH mice, a sucrose-containing high fat diet was supplied ad libitum to the sucrose group (group 2), and a maltitol-containing high fat diet was supplied ad libitum to the maltitol-low dose group (group 3) and the maltitol-high dose group (group 4). An aqueous maltitol solution was supplied ad libitum only to the maltitol-high dose group (group 4) of 5 to 8 weeks of age, and pure water was supplied ad libitum to the groups other than group 4 of 5 to 8 weeks of age. Six male animals per group were assigned to groups S1 and S2, reared up to 5 weeks of age, and then necropsied. Eight male animals per group were assigned to groups 1, 2, 3 and 4, reared up to 8 weeks of age, and then necropsied. At scheduled necropsy of the animals of 5 or 8 weeks of age, all individuals were anesthetized with diethyl ether (manufactured by Sigma-Aldrich Japan K.K.) and a needle through which heparin sodium (Novo Heparin Injection 1000, manufactured by Mochida Pharmaceutical Co., Ltd.) had been passed was punctured to the heart to aspirate the whole blood, leading to euthanasia, followed by harvest of the organ. […]

[2] = Group 4: high fat diet + 2.25% aqueous maltitol solution
[3] = Group 5: high fat diet + 4.5% aqueous maltitol solution
[4] = Group 3: high fat diet + 2.5% aqueous sucrose solution

| SMILES | Fat vacuole area, Significant difference ([1]; Group 4 (2.25% maltitol solution) relative to group 2 (high fat diet + distilled water)) | Fat vacuoles in microscopic observation [1, 2] | Fat vacuole area (Mean ± Standard error) [1, 2] [pixel] | Fat vacuole area, Significant difference ([1]; Group 5 (4.5% maltitol solution) relative to group 2 (high fat diet + distilled water)) | Fat vacuoles in microscopic observation [1, 3] | Fat vacuole area (Mean ± Standard error) [1, 3] [pixel] | Fibrosis area %, Significant difference (NASH mice; Group 3 (low-dose maltitol) vs sucrose group (group 2)) | Fibrosis area % (Sirius Red staining), mean ± standard deviation (NASH mice; Group 3, low-dose maltitol: HFD32-M (maltitol 6.08%) + pure water) [%] | Fibrosis area %, Significant difference (NASH mice; Group 4 (high-dose maltitol) vs sucrose group (group 2)) | Fibrosis area % (Sirius Red staining), mean ± standard deviation (NASH mice; Group 4, high-dose maltitol: HFD32-M (maltitol 6.08%) + aqueous maltitol solution 1.62%) [%] | Fat vacuole area, Significant difference ([1]; Group 3 (2.5% sucrose solution) relative to group 2 (high fat diet + distilled water)) | Fat vacuoles in microscopic observation [1, 4] | Fat vacuole area (Mean ± Standard error) [1, 4] [pixel] | Fibrosis area % (Sirius Red staining), mean ± standard deviation (NASH mice; Group 2, sucrose group: HFD32 (sucrose 6.75%) + pure water) [%] |
| --- | --- | --- | --- | --- | --- | --- | --- | --- | --- | --- | --- | --- | --- | --- |
| OC[C@@H](O)[C@@H](O[C@H]1O[C@H](CO)[C@@H](O)[C@H](O)[C@H]1O)[C@H](O)[C@@H](O)CO [maltitol] | significantly smaller and Yes | few fat vacuoles were observed | 256145 ± 29037 | significantly smaller and Yes | few fat vacuoles were observed | 264982 ± 16387 | tendency to be low; also recorded: Tendency to be different | 0.89 ± 0.15 | tendency to be low; also recorded: Tendency to be different | 0.86 ± 0.27 | – | – | – | – |
| OC[C@H]1O[C@@](CO)(O[C@H]2O[C@H](CO)[C@@H](O)[C@H](O)[C@H]2O)[C@@H](O)[C@@H]1O [sucrose, reference compound] | – | – | – | – | – | – | – | – | – | – | No | reduction of the fat vacuoles is limited | 306930 ± 28549 | 1.09 ± 0.23 |
